The results in this text go back to publication PMC4806279, “Metabolism and Metabolic Inhibition of Xanthotoxol in Human Liver Microsomes” (Evidence-based Complementary and Alternative Medicine : eCAM, 2016).

The subject of data set [1] is cytochrome P450s (CYPs). The data set is described as follows: Inhibition of xanthotoxol metabolite production in HLMs by a nonspecific CYP inhibitor. The data set is classed as in vitro ADME, human. Conditions: xanthotoxol as substrate, 500 μM ABT.
Description: Inhibition study was conducted using the above incubation system consisting of liver microsomes, NADPH-generating system, probe substrate at the concentration of about K m value, and xanthotoxol (or the control inhibitor). The concentrations of positive inhibitors used were as follows: 10 μM furafylline for CYP1A2, 2.5 μM 8-methoxypsoralen for CYP2A6, 10 μM quercetin for CYP2C8, 10 μM sulfaphenazole for CYP2C9, 10 μM quinidine for CYP2D6, 50 μM clomethiazole for CYP2E1, 20 μM omeprazole for CYP2C19, 1 μM ketoconazole for CYP3A4, and 500 μM ABT for broad CYP450s. […]
The target of data set [2] is T1, CYP2C8 (Homo sapiens, UniProt P10632).
T1 construct: The HLMs were prepared from eleven individual human donor livers; tissue Research Institute for Liver Disease Co. (Shanghai, China); host or cells: human liver microsomes, pool of eleven donors
T1 sequence (P10632 1-490): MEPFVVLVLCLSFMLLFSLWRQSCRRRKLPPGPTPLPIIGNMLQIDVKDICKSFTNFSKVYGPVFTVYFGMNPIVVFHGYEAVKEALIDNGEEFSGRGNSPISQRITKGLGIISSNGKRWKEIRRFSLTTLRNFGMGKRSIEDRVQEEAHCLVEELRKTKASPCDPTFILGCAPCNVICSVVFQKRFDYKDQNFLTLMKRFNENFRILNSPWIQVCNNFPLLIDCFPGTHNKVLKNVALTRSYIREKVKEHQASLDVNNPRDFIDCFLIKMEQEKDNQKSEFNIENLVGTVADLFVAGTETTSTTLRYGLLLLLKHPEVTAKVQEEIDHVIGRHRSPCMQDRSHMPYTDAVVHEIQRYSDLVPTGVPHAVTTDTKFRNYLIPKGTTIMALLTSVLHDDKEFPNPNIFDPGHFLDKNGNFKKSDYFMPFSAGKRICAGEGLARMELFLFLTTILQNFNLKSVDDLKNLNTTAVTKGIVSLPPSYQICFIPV
Type of data set: in vitro ADME. The following applies: 100 μM, pH 7.4. The procedure:
(§1) Liver microsomes from human (HLMs) used in this study were provided by the Research Institute for Liver Disease Co. (Shanghai, China). The HLMs were prepared from eleven individual human donor livers. Protein concentration and microsomes activities of CYP2C19, CYP2A6, CYP2C8, CYP2D6, CYP1A2, CYP2C9, CYP2E1, and CYP3A4 had been previously characterized by the Research Institute for Liver Disease Co.
(§2) HLMs phenacetin o-deethylation, coumarin 7-hydroxylation, paclitaxel 6α-hydroxylation, diclofenac 4′-hydroxylation, dextromethorphan o-demethylation, chlorzoxazone 6-hydroxylation, testosterone 6β-hydroxylation, and S-mephenytoin 4′-hydroxylation activities were utilized as selective markers for CYP1A2, CYP2A6, CYP2C8, CYP2C9, CYP2D6, CYP2E1, CYP3A4, and CYP2C19.
(§3) The optimal conditions for microsomal incubation were described previously. The incubation mixture, with a total volume of 200 μL, consisted of 100 mM potassium phosphate buffer (pH 7.4), an NADPH-generating system (10 mM glucose 6-phosphate, 1 unit/mL of glucose 6-phosphate dehydrogenase, and 4 mM MgCl2), liver microsomes (0.3 mg/mL), or recombinant CYP450s (15 nM). […] After a 5 min preincubation at 37°C, the NADP^+ (1 mM, 20 μL) was added into the mixture to initiate the reaction. The reaction was terminated by the addition of methanol (200 μL) with internal standard. The mixture was kept on ice until it was centrifuged at 20 000 ×g for 10 min at 4°C. Aliquots of supernatants were stored at −40°C until analysis. Control incubations without NADPH or without substrate or without microsomes were carried out to ensure that the formation of metabolites was microsomes and NADPH dependent. All incubations throughout the study were carried out in at least three independent experiments with standard deviations (SD) generally below 10%.
(§4) Inhibition study was conducted using the above incubation system consisting of liver microsomes, NADPH-generating system, probe substrate at the concentration of about K m value, and xanthotoxol (or the control inhibitor). […]

For data set [3], the target named is T2, CYP2E1 (Homo sapiens, UniProt P05181).
T2 construct: The HLMs were prepared from eleven individual human donor livers; tissue Research Institute for Liver Disease Co. (Shanghai, China); host or cells: human liver microsomes, pool of eleven donors
Type of data set: in vitro ADME. The following applies: 100 μM, pH 7.4. On the procedure: as §1, §2, §3, §4

Data set [4] has as its target T3, CYP2A6 (Homo sapiens, UniProt P11509).
T3 construct: The HLMs were prepared from eleven individual human donor livers; tissue Research Institute for Liver Disease Co. (Shanghai, China); host or cells: human liver microsomes, pool of eleven donors
T3 sequence (P11509 1-494): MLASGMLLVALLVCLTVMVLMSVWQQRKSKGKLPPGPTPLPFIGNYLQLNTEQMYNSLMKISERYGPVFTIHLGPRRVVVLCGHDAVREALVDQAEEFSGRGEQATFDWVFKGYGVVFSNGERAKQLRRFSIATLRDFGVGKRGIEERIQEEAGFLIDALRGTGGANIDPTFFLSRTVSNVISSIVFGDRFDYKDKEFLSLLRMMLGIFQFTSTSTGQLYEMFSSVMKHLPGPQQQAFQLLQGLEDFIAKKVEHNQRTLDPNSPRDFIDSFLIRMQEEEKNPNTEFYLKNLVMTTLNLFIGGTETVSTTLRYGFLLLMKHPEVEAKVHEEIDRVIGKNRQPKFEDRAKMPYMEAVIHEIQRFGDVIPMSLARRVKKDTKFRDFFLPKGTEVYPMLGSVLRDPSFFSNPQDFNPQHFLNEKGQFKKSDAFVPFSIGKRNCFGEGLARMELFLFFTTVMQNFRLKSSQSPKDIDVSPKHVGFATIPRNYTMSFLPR
Type of data set: in vitro ADME. Conditions: 100 μM, pH 7.4. On the procedure: as §1, §2, §3, §4

Data set [5] has as its target T4, CYP3A4 (Homo sapiens, UniProt P08684).
T4 construct: The HLMs were prepared from eleven individual human donor livers; tissue Research Institute for Liver Disease Co. (Shanghai, China); host or cells: human liver microsomes, pool of eleven donors
The data set is described as follows: Inhibition of testosterone 6β-hydroxylation in human liver microsomes. Type of data set: in vitro ADME. On the procedure:
as §1, §2, §3, §4
Background: Liver microsomes are vesicles of endoplasmic reticulum, rich in cytochrome P450 enzymes.

The nature of data set [6]: in vitro. Type of data set: in vitro ADME. The following applies: human. The procedure:
as §3
To estimate kinetic parameters of xanthotoxol and make sure that the formations of metabolites were in the linear range of both reaction time and the concentration of microsomes, xanthotoxol (0.25–200 μM) was incubated with pooled HLMs for 30 min. Reaction velocities and substrate concentrations were used to calculate the apparent K m and V max values according to nonlinear regression from the Michaelis-Menten equation (see (1)). CLint was calculated as V max/K m. In addition, the result was graphically represented on Eadie-Hofstee plots (velocities versus ratios of velocities to substrate concentrations) to determine whether the metabolism was monophasic or biphasic. Consider(1) V=Vmax·S/Km+S, where V max was the maximum reaction velocity, K m was the Michaelis constant that represented the substrate concentration at which the velocity was half of V max, V was the reaction velocity, and [S] was the substrate concentration.

Data set [7] is classed as in vitro ADME. The following applies: human. An excerpt: The following equations were used to predict the xanthotoxol clearance in human:(2) CLint in vitro=Vmax/Km,CLint in vivo=CLint in vitro·SF,CLH=QH·fu·CLint in vivo/QH+fu·CLint in vivo, where SF (scaling factor) represents the milligrams of microsomal protein per gram of liver multiplied by the grams of liver weight; CLint is the intrinsic metabolic clearance; CLH is hepatic clearance; f u is the free fraction in blood (there are no data of xanthotoxol; here f u was arbitrarily proposed to be 1); Q H is the hepatic blood flow. The hepatic clearance of xanthotoxol was calculated using (2), and physiological parameters in human were described as follows: microsomal protein per gram of liver, liver weight per kilogram of body, and liver blood flow for human were 48.8 mg, 25.7 g, and 20.7 mL·min^−1·kg^−1, respectively.

The target in data set [8] is T5, CYP1A2 (Homo sapiens, UniProt P05177).
T5 construct: The HLMs were prepared from eleven individual human donor livers; tissue Research Institute for Liver Disease Co. (Shanghai, China); host or cells: human liver microsomes, pool of eleven donors
T5 sequence (P05177 1-516): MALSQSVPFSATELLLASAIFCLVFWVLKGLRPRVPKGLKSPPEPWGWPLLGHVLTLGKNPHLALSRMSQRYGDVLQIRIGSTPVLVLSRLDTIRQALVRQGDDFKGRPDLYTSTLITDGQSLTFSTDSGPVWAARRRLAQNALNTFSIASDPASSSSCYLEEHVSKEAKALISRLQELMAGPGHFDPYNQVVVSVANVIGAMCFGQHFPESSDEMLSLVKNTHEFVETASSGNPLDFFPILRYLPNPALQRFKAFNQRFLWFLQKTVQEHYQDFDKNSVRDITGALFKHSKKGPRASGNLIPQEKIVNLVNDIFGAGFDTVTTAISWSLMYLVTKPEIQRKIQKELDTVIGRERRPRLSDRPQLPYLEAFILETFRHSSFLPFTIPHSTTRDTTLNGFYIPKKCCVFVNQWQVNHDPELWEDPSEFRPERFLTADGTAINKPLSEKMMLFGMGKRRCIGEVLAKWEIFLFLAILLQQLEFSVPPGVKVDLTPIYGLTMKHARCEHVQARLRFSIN
The data set is described as follows: Inhibition of phenacetin o-deethylation in human liver microsomes. Type of data set: in vitro ADME. The procedure:
as §1, §2, §3, §4

Data set [9] addresses T2, CYP2E1. Type of data set: in vitro ADME. The following applies: recombinant enzyme, 30 min, 10 mM, pH 7.4. On the procedure: as §3
The enzymes involved in the xanthotoxol metabolism were investigated using cDNA-expressed human P450 isoforms including CYP3A4, CYP2D6, CYP2E1, CYP2C9, CYP2C19, and CYP1A2. The incubation for each isoenzyme was carried out as described for the liver microsomal study. […]

Where [10] appears, read: HLMs, Lineweaver-Burk and Dixon plots.

T4 sequence (P08684 whole entry): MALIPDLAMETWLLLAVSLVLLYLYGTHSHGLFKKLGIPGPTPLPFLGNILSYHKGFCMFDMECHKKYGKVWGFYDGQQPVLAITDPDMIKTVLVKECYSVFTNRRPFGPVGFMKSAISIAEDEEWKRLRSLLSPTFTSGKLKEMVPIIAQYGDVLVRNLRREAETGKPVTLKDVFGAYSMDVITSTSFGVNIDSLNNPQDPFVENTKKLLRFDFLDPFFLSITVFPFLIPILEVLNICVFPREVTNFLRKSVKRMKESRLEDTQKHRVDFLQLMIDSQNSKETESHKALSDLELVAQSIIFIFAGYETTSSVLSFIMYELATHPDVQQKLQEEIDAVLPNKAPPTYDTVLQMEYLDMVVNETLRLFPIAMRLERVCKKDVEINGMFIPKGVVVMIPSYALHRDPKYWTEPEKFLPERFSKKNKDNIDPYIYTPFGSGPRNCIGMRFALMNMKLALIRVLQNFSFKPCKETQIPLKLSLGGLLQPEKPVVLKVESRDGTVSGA
T2 sequence (P05181 whole entry): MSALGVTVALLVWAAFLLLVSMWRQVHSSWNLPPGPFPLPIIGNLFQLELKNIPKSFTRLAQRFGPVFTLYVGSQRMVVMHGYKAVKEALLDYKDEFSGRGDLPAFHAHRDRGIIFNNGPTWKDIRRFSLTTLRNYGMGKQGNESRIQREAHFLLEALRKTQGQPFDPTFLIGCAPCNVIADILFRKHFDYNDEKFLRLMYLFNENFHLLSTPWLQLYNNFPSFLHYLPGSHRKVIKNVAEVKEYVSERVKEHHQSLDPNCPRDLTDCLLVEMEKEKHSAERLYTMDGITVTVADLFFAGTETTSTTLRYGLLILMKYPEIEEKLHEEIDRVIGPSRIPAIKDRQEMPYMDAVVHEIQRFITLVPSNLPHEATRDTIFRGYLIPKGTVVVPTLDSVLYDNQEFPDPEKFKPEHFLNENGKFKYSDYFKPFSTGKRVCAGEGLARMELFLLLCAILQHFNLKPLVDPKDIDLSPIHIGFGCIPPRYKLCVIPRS

In the case of `Nn1nnc2ccccc21` [Aminobenzotriazole (ABT), 1-aminobenzotriazole], the “inhibition against metabolite production” value in [1] is reported as “potent inhibition”.

The IC50 is the point on the concentration scale where inhibition reaches its midpoint. High values mean lower potency, low ones higher potency. As a reminder, the Ki is the equilibrium dissociation constant of an inhibitor or competing ligand from its target. Lower therefore signals a stronger hold on the target. As a reminder, the microsomal CLint is a measure of how fast metabolising enzymes remove a compound, apart from limits set by blood flow. By Km is commonly meant the concentration of substrate that gives half-maximal velocity. For the molecule `O=c1ccc2cc3ccoc3c(O)c2o1` [xanthotoxol, Xanthotoxol], the “inhibited the activity of CYP2C8” value in [2] is listed as 52.1%. For the same molecule, the “inhibited the activity of CYP2E1” value in [3] came to 25.9%. The “inhibited the activity of CYP2A6” value in [4] is 82.1%. Also, in [5], the IC50 came out at 7.43 µM and the Ki came to 2.22 µM. Further, the “type of inhibition of CYP3A4” value in [5] (setting [10]) is “noncompetitive”. Besides, the “Vmax of xanthotoxol metabolism” value in [6] (30 min, pH 7.4) is 0.55 nmol/min/mg. Besides, the “Intrinsic clearance (CLint)” value in [6] (microsomes, pH 7.4) was determined as 65 µL/min/mg. In data set [6] (microsomes, pH 7.4, Intrinsic clearance (CLint)), the microsomal CLint was 60 µL/min/mg. The Km at 30 min in [6] (pH 7.4) amounted to 8.46 µM. For the same molecule, in data set [7], the “hepatic clearance (CLH)” value is 15.91 mL·min^−1·kg^−1 body weight and the “percentage of CLH versus hepatic blood flow (QH)%” value turned out to be 76.8%. Moreover, in data set [7] (microsomes), the clearance classification result was “high-clearance drug”. Besides, in data set [8], half-maximal inhibition (IC50) was put at 27.8 µM and the affinity, expressed as Ki, was 21.1 µM. Also, in data set [8] (setting [10]), the “type of inhibition of CYP1A2” value is reported as “noncompetitive”. In addition, in data set [9], the “amount of metabolite M generated compared to CYP1A2 level” value came to 7.3%.
